Data from US10023615B2, “Efficient transport into white blood cells” (priority 2008, dated 2018).
Square brackets hold non-standard residues; d marks the D form. Ends that are not written are not given here.

Assays:
TNBS induced colitis = TNBS induced colitis (IBD study); assay type: in vivo
Description: b) Constitution of Test Groups and Dose Levels • The table below lists the experimental groups comprising the study.
c) Test Procedures • Colitis was induced by administration of TNBS dissolved in 50% Ethanol • All animals were then treated with doses of XG-102 in the range of 0.1 to 1000 μg/kg, […], as a single or repeated daily doses (see above).
d) Observations and Examinations • i) Clinical Signs • Throughout the duration of the above experiment, careful clinical examinations were carried out and recorded. Observations included changes external appearance, e.g. of the skin, fur, eyes, mucous membranes, occurrence of secretions and excretions (e.g. diarrhea), and autonomic activity. Changes in gait, posture and response to handling, as well as the presence of bizarre behavior, tremors, convulsions, sleep and coma were also noted. • ii) Body Weights • Determination of individual body weight of animals was made on a daily basis. • iii) Clinical Assessment of Colitis • Body weight, stool consistency and bleeding per rectum were all recorded daily and served as the parameters of disease severity score:
• iv) Gross Pathology of the Colon • On the last day of the experiment, animals were euthanized and the colon was removed for gross pathology evaluation according to the following score: […]

liver and lymph nodes = assay: FITC-XG-102 and FITC-D-TAT localization in liver and lymph nodes; assay type: in vivo, Sprague Dawley rat; settings: 1 mg/kg i.v., 6 h post-injection
Description: FIG. 22A and FIG. 22B: 22A: FITC-XG-102 (SEQ ID NO: 233) localization in the liver. Three cellular fields of FITC-XG-102-labelled cells isolated from liver. From left to right, FITC-labelled XG-102, corresponding DAPI nuclear stain and merge of both images. […] Typicall Kupfer cell shape and nucleus can be differentiated from hepatocytes by their shape. Small and triangle in Kupfer cells in contrast to big exagonal, well organized hepatocytes. Obj 63; bar, 20 μm. 22B: FITC-D-TAT (SEQ ID NO: 4) localization in the liver. Two cellular fields of FITC-D-TAT-labelled cells isolated from liver. From left to right, FITC-labelled XG-102, corresponding DAPI nuclear stain and merge of both images. […] Typicall Kupfer cell shape and nucleus can be differentiated from hepatocytes by their shape. Small and triangle in Kupfer cells in contrast to big exagonal, well organized hepatocytes. Obj 63; bar, 20 μm.
(§1) FIG. 23A and FIG. 23B: 23A: FITC-XG-102 (SEQ ID NO: 233) localization in lymph nodes. Cellular field of FITC-XG-102-labelled cells isolated from lymph nodes. Upper panels from left to right: the composite image is organized with one cellular field stained with FITC-XG-102 (left), Dapi for nuclear stain (middle) and the corresponding merged image (right). In the lower panels, a zoomed cell cluster of each image is illustrated. […] The absence of FITC staining in the lymphoid follicles allows distinguishing from the medullary corde and cortex area. Medullary zone seems to have incorporated the FITC-XG-102, composed in majority by macrophages. Obj 10; bar, 50 μm.
as §1, with “23B:” for “FIG. 23A and FIG. 23B:”, “FITC-D-TAT” for “23A: FITC-XG-102”, “4)” for “233)”, “FITC-D-TAT-labelled” for “FITC-XG-102-labelled”, “FITC-D-TAT” for “FITC-XG-102”, “FITC-D-TAT,” for “FITC-XG-102,”
Female Sprague Dawley rat was injected i.v. in the tail with either 1 mg/kg of FITC-XG102 (SEQ ID NO:233) or 1 mg/kg FITC-D-TAT (SEQ ID NO:4). Rats were sacrified 6 h post-injection using a lethal dose of sodium pentobarbital (150 mg/kg i.p.). For histological analysis and during narcosis, rats were perfused through the heart with 4% paraformaldehyde (PFA) in PBS. Organs (liver and lymph nodes) were cryoprotected in sucrose (30% in PBS), frozen using liquid isopentane and kept for further cryostat sectioning. Sections of 14 μm were incubated for 5 min in PBS before Hoechst staining for 2 min at RT (1 μg/ml). […]

Monocytes (CD14) = assay: Flow cytometry of FITC-transporter content in primary human white blood cells: monocytes; assay type: cell-based; settings: 1 uM, 30 min, 37° C.
Description: (§2) Primary human white blood cells (WBC) were obtained from whole blood after red blood cell lysis. […] Cells containing D-TAT-FITC and r3-L-TAT-FITC were finally analysed by flow cytometry to measure their respective transporter content.

Neutrophils (CD15) = assay: Flow cytometry of FITC-transporter content in primary human white blood cells: neutrophils; assay type: cell-based; settings: 1 uM, 30 min, 37° C.
Description: as §2

Lymphocytes T (CD3) = assay: Flow cytometry of FITC-transporter content in primary human white blood cells: lymphocytes T; assay type: cell-based; settings: 1 uM, 30 min, 37° C.
Description: as §2

Lymphocytes B (CD19) = assay: Flow cytometry of FITC-transporter content in primary human white blood cells: lymphocytes B; assay type: cell-based; settings: 1 uM, 30 min, 37° C.
Description: as §2

U937 lymphoma cells = assay: Uptake (internalization) of FITC-labeled TAT derived transporter constructs in U937 cells, fluorescence plate reader; assay type: cell-based; settings: 10 μM, U937, Lymphoma, 24 h
Description: Cells were plated into poly-DL-lysine coated dishes at a concentration of 1×10^6 cells/ml. Plates were then incubated for 24 h at 37° C., 5% CO2, and 100% relative humidity prior to the addition of a known concentration of peptide. After peptide addition, the cells were incubated 30 min, 1, 6 or 24 h at 37° C., 5% CO2, and 100% relative humidity. Cells were then washed twice with an acidic buffer (Glycin 0.2 M, NaCl 0.15 M, pH 3.0) in order to remove the cell-surface adsorbed peptide (see Kameyama et al., (2007), Biopolymers, 88, 98-107). […] The cell wash using an acidic buffer was thus employed to remove the cell-surface adsorbed peptides. […] Cells were broken by the addition of the RIPA lysis buffer. The relative amount of internalized peptide was then determined by fluorescence after background substraction and protein content normalization. • The steps are thus: 1. […] Analysis of peptide internalization with a fluorescence plate reader • f) Cell Culture and Peptide Treatment • (1) The 6 well culture plates are coated with 3 ml of Poly-D-Lys (Sigma P9011; 25 μg/ml in PBS), the 24 well plates with 600 μl and the 96 well plates with 125 μl and incubated for 4 h at 37° C., CO2 5% and 100% relative humidity. • (2) After 4 hours the dishes were washed twice with 3.5 ml PBS, 700 μl or 150 μl PBS for the 6, 24 or 96 well plates, respectively. • (3) The cells were plated into the dishes in 2.4 ml medium (RPMI) at plating densities of 1′000′000 cells/ml for suspension cells. After inoculation, the plates were incubated at 37° C., 5% CO2 and 100% relative humidity for 24 hours prior to the addition of the peptide. Adherent cells should be at a density of 90-95% the day of treatment and were plated in DMEM :
• (4) The cells were treated with the desired concentration of FITC labeled peptide (stock solution at a concentration of 10 mM in H2O). • (5) Following peptide addition, the cells were incubated 0 to 24 hours (e.g. 30 min, 1, 6 or 24 hours) at 37° C., CO2 5% and 100% relative humidity. • Acidic Wash and Cellular Extracts: • (6) The extracts were cooled on ice. • Suspension cells (or cells, which don attach well to the dish): • Transfer the cells in ? […] To recover the maximum of cells, wash the dish with 1 ml of PBS. • Harvest the cells 2 min at 2400 rpm max. • Suspend the cells in 1 ml cold PBS. • Transfer the cells into a coated “Eppendorf tube” (coated with 1 ml of poly D-Lys for 4 hours and washed twice with 1 ml PBS). • Wash three times with 1 ml of cold acidic wash buffer and centrifuge 2 min at 2400 rpm max. Beware of the spreading of the cells in the “eppendorf”. • Wash twice with 1 ml cold PBS to neutralize. • Add 50 μl of lysis RIPA Buffer. • Incubate 30 min-1 h on ice with agitation. • Adherent Cells: • Wash three times with 3 ml, 1 ml or 200 μl (for 6, 24 or 96 well plates, respectively) of cold acidic wash buffer. Beware of the cells who detach from the dish. • Wash twice with 1 ml cold PBS (for 6, 24 or 96 well plates, respectively) to neutralize. • Add 50 μl of lysis RIPA buffer. • Incubate 30 min-1 h on ice with agitation. • Scrap the cells with a cold scrapper. The 24 and 96 well plates were directly centrifuged at 4000 rpm at 4° for 15 min to remove the cellular debris. Then the supernatants (100 or 50 ml respectively for the 24 or 96 well plates) were directly transferred in a dark 96 well plated.

U937 cells = assay: Intracellular concentration of transporter constructs subsequent to uptake into U937 cells; assay type: cell-based; settings: U937 cells, 10 μM construct
Description: 9. Determination of Intracellular Concentration of Specific Transporter Constructs Subsequent to Uptake (Internalization) of these Peptides into U937 Cells • According to a further experiment, the concentration of specific transporter constructs subsequent to uptake (internalization) of these peptides into U937 cells were determined.

[1] = test system: HL-60 cell line (Leukemia); assay: Time dependant internalization of FITC-labeled TAT derived transporter constructs into HL-60 cells; assay type: cell-based; settings: 10 μM; 30 min, 1, 6 or 24 hours
Description: FIG. 3: depicts the results of the time dependant internalization (uptake) of FITC-labeled TAT derived transporter constructs into cells of the HL-60 cell line. […] HL-60 cells were incubated 30 min, 1, 6 or 24 hours with […] of the TAT-derivative transporters. The cells were then washed twice with an acidic buffer (0.2 M Glycin, 0.15 M NaCl, pH 3.0) and twice with PBS. Cells were broken by the addition of RIPA lysis buffer. The relative amount of internalized peptide was then determined by reading the fluorescence intensity (Fusion Alpha plate reader; PerkinElmer) of each extract followed by background substraction and protein content normalization. […]

[2] = test system: dissociated cortical primary neurons; assay: Confocal microscopy of FITC-labeled TAT derivative transporters in cortical primary neurons; assay type: cell-based, rat; settings: 500 nM, 24 hours
Description: 8.4 Internalization Experiments and Analysis • The time dependant internalization (uptake) of FITC-labeled TAT derived transporter constructs into cells of the HL-60 cell line was carried out with materials and methods as described above. • Briefly, HL-60 cells were incubated 30 min, 1, 6 or 24 hours with 10 μM of the TAT-derivative transporters. The cells were then washed twice with an acidic buffer (0.2 M Glycin, 0.15 M NaCl, pH 3.0) and twice with PBS. Cells were broken by the addition of RIPA lysis buffer. The relative amount of internalized peptide was then determined by reading the fluorescence intensity (Fusion Alpha plate reader; PerkinElmer) of each extract followed by background substraction and protein content normalization. […] The dissociated cortical primary neurons from P2 Sprague Dawley rats were cultured 12 days in neurobasal medium before exposure 24 hours to 500 nM of the FITC-labeled • TAT derivative transporters. The cells were washed five times with PBS on ice and then mounted in fluorsave mounting medium without prior fixation. Acquisitions were performed on LSM510 metaconfocal microscope (Zeiss). Images were processed with LSM510 software and mounted using Adobe photoshop. Visualization by confocal microscopy of labeling with 500 nM FITC-transporters (A: green). Nuclei were stained by Hoechst (B: blue).

Compound: O=C(O)c1cc(/N=N/c2ccc(S(=O)(=O)Nc3ccccn3)cc2)ccc1O [Sulfasalazine, reference compound]
- clinical score (TNBS induced colitis; any dose, route or time schedule (single dose or daily dose)): reduction in the clinical score
- gross pathology score (TNBS induced colitis; end of the study): effective in reducing the gross pathology completely

Compound: FITC-XG-102: FITC-labelled XG-102 (SEQ ID NO: 233) ([dD][dQ][dS][dR][dP][dV][dQ][dP][dF][dL][dN][dL][dT][dT][dP][dR][dK][dP][dR][dP][dP][dR][dR][dR][dQ][dR][dR][dK][dK][dR]G; not fully specified (N-terminus, C-terminus); also: FITC label, site not given here)
- localization in lymph nodes (liver and lymph nodes): decorates subcapsular sinus macrophages and constitutive migrating alveolar macrophages
- localization in the liver (liver and lymph nodes): efficiently decorates Kupfer cells in contrast to hepatocytes which only show a background staining level

Compound: FITC-βA-rKKRrQRRr [r3-L-TAT-FITC]
- percentage of cells gated, lower left quadrant (Monocytes (CD14)): 40.77%
- percentage of cells gated, lower right quadrant (Monocytes (CD14)): 36.24%
- percentage of cells gated, upper left quadrant (Monocytes (CD14)): 6.34%
- percentage of cells gated, upper right quadrant (Monocytes (CD14)): 16.65%
- percentage of cells gated, lower left quadrant (Neutrophils (CD15)): 49.75%
- percentage of cells gated, lower right quadrant (Neutrophils (CD15)): 24.76%
- percentage of cells gated, upper left quadrant (Neutrophils (CD15)): 11.74%
- percentage of cells gated, upper right quadrant (Neutrophils (CD15)): 13.75%
- percentage of cells gated, lower left quadrant (Lymphocytes T (CD3)): 50.36%
- percentage of cells gated, lower right quadrant (Lymphocytes T (CD3)): 20.04%
- percentage of cells gated, upper left quadrant (Lymphocytes T (CD3)): 20.64%
- percentage of cells gated, upper right quadrant (Lymphocytes T (CD3)): 8.96%
- percentage of cells gated, lower left quadrant (Lymphocytes B (CD19)): 61.92%
- percentage of cells gated, lower right quadrant (Lymphocytes B (CD19)): 8.48%
- percentage of cells gated, upper left quadrant (Lymphocytes B (CD19)): 27.83%
- percentage of cells gated, upper right quadrant (Lymphocytes B (CD19)): 1.76%

Compound: RKKRRQRRR (Description of sequence trafficking sequence L-TAT (s1a) (see Table 1)) [reference compound]
- uptake (internalization) (U937 lymphoma cells): significantly lower uptake
- intracellular concentration of transporter construct subsequent to uptake (U937 cells; 2 h): 1.20
- intracellular concentration of transporter construct subsequent to uptake (U937 cells; 4 h): 1.38
- intracellular concentration of transporter construct subsequent to uptake (U937 cells; 6 h): 1.07
- intracellular concentration of transporter construct subsequent to uptake (U937 cells; 24 h): 0.5
- time dependant internalization (uptake) [1]: doesn't accumulate over a period of 24 hours

Compound: rRRQrRKKr [r3-L-TATi]
- uptake (internalization) (U937 lymphoma cells): most efficient
- time dependant internalization (uptake) [1]: less efficient but still suitable
- internalization seen by confocal microscopy [2]: internalized into the cytoplasm of the non stressed neurons
